Read-outs that look alike come from different tables or passages of the source.

What all share (test): stopped-flow CO2 hydration
What all share (type): biochemical

For one assay, the target named is T1, hCA IX (Homo sapiens, UniProt Q16790).
T1 construct: gene CA9; recombinant, obtained in-house
The text has this:
stopped-flow CO2 hydration on hCA IX

A further assay addresses T2, hCA XII (Homo sapiens, UniProt O43570).
T2 construct: gene CA12; recombinant, obtained in-house

Another assay addresses T3, hCA II (Homo sapiens, UniProt P00918).
T3 construct: gene CA2; recombinant, obtained in-house

Assay [1] deals with T4, hCA I (Homo sapiens, UniProt P00915).
T4 construct: gene CA1; recombinant, obtained in-house
T4 sequence (P00915 2-261): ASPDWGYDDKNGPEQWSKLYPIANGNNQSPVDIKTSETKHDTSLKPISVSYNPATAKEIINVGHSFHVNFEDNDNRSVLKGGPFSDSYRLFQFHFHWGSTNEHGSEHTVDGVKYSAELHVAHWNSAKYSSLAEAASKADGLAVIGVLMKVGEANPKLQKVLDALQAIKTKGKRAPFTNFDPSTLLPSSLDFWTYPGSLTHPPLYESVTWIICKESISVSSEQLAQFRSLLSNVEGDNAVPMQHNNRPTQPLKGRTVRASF

Another assay has as its target T5, hCA VI (Homo sapiens, UniProt P23280).
T5 construct: gene CA6; recombinant, obtained in-house
As to conditions: read-out: KI (μM)^a^,^b / hCA VI. The text has this:
stopped-flow CO2 hydration on hCA VI

The next assay deals with T6, hCA III (Homo sapiens, UniProt P07451).
T6 construct: gene CA3; recombinant, obtained in-house
T6 sequence (P07451 2-260): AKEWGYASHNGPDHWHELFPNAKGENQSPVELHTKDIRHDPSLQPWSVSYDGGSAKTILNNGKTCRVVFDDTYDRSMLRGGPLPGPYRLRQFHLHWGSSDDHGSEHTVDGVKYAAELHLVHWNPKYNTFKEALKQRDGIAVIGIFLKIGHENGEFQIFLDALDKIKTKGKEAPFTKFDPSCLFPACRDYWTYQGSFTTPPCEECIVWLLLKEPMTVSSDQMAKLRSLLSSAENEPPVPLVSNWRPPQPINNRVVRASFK
The note with it: read-out: KI (μM)^a^,^b / hCA III. The text has this: stopped-flow CO2 hydration on hCA III

The target of the next assay is T7, hCA IV (Homo sapiens, UniProt P22748).
T7 construct: gene CA4; recombinant, obtained in-house
T7 sequence (P22748 19-284): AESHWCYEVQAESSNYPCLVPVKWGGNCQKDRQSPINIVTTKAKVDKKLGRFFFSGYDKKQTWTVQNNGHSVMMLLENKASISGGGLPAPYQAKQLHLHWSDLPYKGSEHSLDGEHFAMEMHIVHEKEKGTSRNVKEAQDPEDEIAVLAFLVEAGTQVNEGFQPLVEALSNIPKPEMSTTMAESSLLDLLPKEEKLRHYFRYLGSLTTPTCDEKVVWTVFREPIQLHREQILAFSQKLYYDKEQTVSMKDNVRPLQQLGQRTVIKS
As to conditions: read-out: KI (μM)^a^,^b / hCA IV. The text has this:
stopped-flow CO2 hydration on hCA IV

Another assay concerns the target T8, hCA VB (Homo sapiens, UniProt Q9Y2D0).
T8 construct: gene CA5B; recombinant, obtained in-house
As to conditions: read-out: KI (μM)^a^,^b / hCA VB. The text has this: stopped-flow CO2 hydration on hCA VB

The target of another assay is T9, hCA VII (Homo sapiens, UniProt P43166).
T9 construct: gene CA7; recombinant, obtained in-house
T9 sequence (P43166 whole entry): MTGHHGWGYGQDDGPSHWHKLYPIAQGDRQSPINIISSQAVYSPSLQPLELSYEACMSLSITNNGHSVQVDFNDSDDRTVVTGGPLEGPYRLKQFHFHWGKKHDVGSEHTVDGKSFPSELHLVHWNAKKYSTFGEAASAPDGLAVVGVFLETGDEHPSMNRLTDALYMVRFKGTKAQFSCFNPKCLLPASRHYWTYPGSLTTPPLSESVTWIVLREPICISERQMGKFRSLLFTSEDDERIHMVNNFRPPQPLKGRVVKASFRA
As to conditions: read-out: KI (μM)^a^,^b / hCA VII.

The target of a further assay is T10, hCA XIV (Homo sapiens, UniProt Q9ULX7).
T10 construct: gene CA14; recombinant, obtained in-house
T10 sequence (Q9ULX7 16-290 limits assumed): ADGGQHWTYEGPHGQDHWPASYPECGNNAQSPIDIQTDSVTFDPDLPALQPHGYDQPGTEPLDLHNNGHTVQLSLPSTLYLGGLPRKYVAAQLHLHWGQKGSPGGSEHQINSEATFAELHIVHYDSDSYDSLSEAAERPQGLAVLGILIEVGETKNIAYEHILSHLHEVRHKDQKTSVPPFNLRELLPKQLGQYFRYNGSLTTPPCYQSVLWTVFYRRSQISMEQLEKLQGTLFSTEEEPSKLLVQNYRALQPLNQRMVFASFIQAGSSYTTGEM
The note with it: read-out: KI (μM)^a^,^b / hCA XIV. The text has this:
stopped-flow CO2 hydration on hCA XIV

A further assay addresses T11, hCA VA (Homo sapiens, UniProt P35218).
T11 construct: gene CA5A; recombinant, obtained in-house
As to conditions: read-out: KI (μM)^a^,^b / hCA VA. The text has this: stopped-flow CO2 hydration on hCA VA

The target of another assay is T12, mCA XIII (Mus musculus, UniProt Q9D6N1).
T12 construct: gene Ca13; recombinant, obtained in-house
T12 sequence (Q9D6N1 whole entry): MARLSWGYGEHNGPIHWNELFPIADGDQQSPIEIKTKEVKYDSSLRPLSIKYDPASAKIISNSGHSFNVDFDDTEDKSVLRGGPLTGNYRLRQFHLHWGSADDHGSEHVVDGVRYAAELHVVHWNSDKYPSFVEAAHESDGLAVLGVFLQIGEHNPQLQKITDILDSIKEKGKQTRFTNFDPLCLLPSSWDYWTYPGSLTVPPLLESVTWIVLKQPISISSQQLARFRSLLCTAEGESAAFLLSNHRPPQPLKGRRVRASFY
The note with it: read-out: KI (μM)^a^,^b / mCA XIII. The text has this: stopped-flow CO2 hydration on mCA XIII

The target in assay [2] is T4, hCA I. As to conditions: CO2 1.7-17 mM, 20 mM Hepes pH 7.5, 20 mM Na2SO4, 15 min preincubation, room temperature; unreliable: table and text (69.8) disagree. The text has this: stopped-flow CO2 hydration on hCA I
Setting [3] is: read-out: KI (μM)^a^,^b / hCA IX^c.
Setting [4] is: read-out: KI (μM)^a^,^b / hCA XII^c.
[5] abbreviates: read-out: KI (μM)^a^,^b / hCA II.
The mark [6] stands for this setting: CO2 1.7-17 mM, 20 mM Hepes pH 7.5, 20 mM Na2SO4, 15 min preincubation, room temperature, read-out: KI (μM)^a^,^b / hCA I.
The mark [7] stands for this setting: read-out: KI (μM)^a^,^b / hCA I.

T11 sequence (P35218 39-305): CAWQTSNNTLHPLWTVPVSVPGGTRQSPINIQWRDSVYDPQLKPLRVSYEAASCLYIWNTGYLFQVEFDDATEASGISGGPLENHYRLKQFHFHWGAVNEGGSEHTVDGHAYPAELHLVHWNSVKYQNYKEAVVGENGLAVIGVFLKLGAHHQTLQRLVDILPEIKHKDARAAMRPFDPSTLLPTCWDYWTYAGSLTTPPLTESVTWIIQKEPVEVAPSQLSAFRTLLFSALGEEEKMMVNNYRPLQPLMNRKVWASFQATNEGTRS
T2 sequence (O43570 30-289 limits assumed): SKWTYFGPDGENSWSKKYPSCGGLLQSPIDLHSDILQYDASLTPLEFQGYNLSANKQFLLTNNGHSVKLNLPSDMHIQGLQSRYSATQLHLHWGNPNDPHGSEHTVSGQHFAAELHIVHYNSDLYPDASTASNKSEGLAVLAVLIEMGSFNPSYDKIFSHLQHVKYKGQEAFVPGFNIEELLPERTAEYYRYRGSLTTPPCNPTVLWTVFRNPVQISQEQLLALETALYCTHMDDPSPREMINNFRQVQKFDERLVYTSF
T5 sequence (P23280 18-308): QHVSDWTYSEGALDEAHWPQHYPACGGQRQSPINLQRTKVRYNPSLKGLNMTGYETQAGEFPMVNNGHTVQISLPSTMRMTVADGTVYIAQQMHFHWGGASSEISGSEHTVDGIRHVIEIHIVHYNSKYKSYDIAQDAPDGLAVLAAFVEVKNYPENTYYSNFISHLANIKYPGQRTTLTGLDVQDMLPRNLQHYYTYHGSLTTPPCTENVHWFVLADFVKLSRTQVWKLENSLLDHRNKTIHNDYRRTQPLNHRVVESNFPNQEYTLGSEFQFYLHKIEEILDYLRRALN
T8 sequence (Q9Y2D0 34-317): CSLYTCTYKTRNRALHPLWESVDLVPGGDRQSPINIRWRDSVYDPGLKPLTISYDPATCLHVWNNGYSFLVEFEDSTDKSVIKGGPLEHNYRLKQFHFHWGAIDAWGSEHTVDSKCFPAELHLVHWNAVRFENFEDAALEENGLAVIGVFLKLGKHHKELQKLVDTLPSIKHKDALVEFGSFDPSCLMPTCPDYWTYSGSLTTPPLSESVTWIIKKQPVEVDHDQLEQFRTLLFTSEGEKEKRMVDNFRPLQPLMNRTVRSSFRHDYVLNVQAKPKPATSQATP

For `NC(=O)Oc1ccccc1` [7a, carbamate 7a], the Ki on hCA IX (read-out: hCA IX) came out at 10.1 µM; at hCA XII (read-out: hCA XII), 2.81 µM; on hCA II (read-out: hCA II) it was 110 µM; at hCA I [1] (read-out: hCA I) it was 720 µM.

`O=C(O)c1ccccc1` [compound 6, benzoic acid]: the Ki on hCA IX (setting [3]) amounted to 66.5 µM; on hCA VI it was 91.6 µM; on hCA III it was 35.7 µM; at hCA IV it was 434 µM; on hCA XII (setting [4]) it was 20.4 µM; at hCA VB, 9.6 µM. The Ki at hCA VII is 92.2 µM; at hCA II (setting [5]) it was 30.1 µM; at hCA I [1] (setting [6]), 730 µM; at hCA XIV, 0.98 µM; on hCA VA, 7.12 µM.

In the case of `CONC(=O)c1ccccc1` [compound 10, methylated hydroxamate 10], the Ki on hCA IX (setting [3]) is 57.5 µM; on hCA VI, 89.9 µM; on hCA III, 37.3 µM; on hCA IV, 111 µM; at hCA XII (setting [4]) it was 28.5 µM; on hCA VB, 57.3 µM. Also, the Ki at hCA VII amounted to 72.2 µM; on hCA II (setting [5]), 341 µM; on hCA I [1] (setting [7]), 72.5 µM; on hCA XIV, 10 µM; at hCA VA, 89.1 µM.

Turning to `O=S(=O)(O)c1ccccc1` [compound 1, benzenesulphonic acid], the Ki at hCA IX (setting [3]) was 9.55 µM; on hCA VI it was 8.8 µM; at hCA III, 6.63 µM; on hCA IV it was 9.1 µM; at hCA XII (setting [4]), 6.45 µM; at hCA VB, 79.8 µM. Besides, the Ki on hCA VII came to 7.93 µM; on hCA II (setting [5]), 9.3 µM; at mCA XIII, 8.72 µM; at hCA I [1] (setting [7]), 8.65 µM; on hCA XIV, 8.79 µM; on hCA VA, 80.9 µM.

As to `NS(=O)(=O)c1ccccc1` [compound 2, benzenesulphonamide], the Ki at hCA IX (read-out: KI (μM)^a^,^b / hCA VI) amounted to 0.097 µM; at hCA VI it was 0.097 µM; on hCA III, 2.26 µM; on hCA IV, 7.96 µM; at hCA VB it was 8.82 µM; on mCA XIII, 0.1 µM. Besides, the Ki at hCA XIV is 0.092 µM; on hCA VA it was 1.68 µM.

In the case of `NS(=O)(=O)Nc1ccccc1` [2b, sulphamide 2b], on hCA IX (read-out: hCA IX), the Ki is 0.071 µM.

In the case of `O=C(NO)c1ccccc1` [compound 9, hydroxamic acid 9], the Ki on hCA IX (CO2 1.7-17 mM, 20 mM Hepes pH 7.5, 20 mM Na2SO4, 15 min preincubation, room temperature, read-out: KI (μM)^a^,^b / hCA IX^c) is 45.9 µM; on hCA VI, 78.1 µM; at hCA III, 44.8 µM; at hCA IV it was 84.7 µM; on hCA VB, 53.6 µM; on hCA VII it was 70.7 µM. Moreover, the Ki was determined as 179 µM at hCA II (CO2 1.7-17 mM, 20 mM Hepes pH 7.5, 20 mM Na2SO4, 15 min preincubation, room temperature, read-out: KI (μM)^a^,^b / hCA II); 83.1 µM on hCA I [1] (setting [6]); 0.94 µM at hCA XIV; 67.4 µM at hCA VA.

With `NNS(=O)(=O)c1ccccc1` [compound 3, N-amino sulphonamide 3], the Ki came out at 51.7 µM at hCA IX (setting [3]); 74.4 µM on hCA VI; 6.28 µM on hCA III; 78.4 µM on hCA IV; 2.42 µM on hCA XII (setting [4]); 95.2 µM at hCA VB. In addition, the Ki on hCA VII stood at 8.56 µM; on hCA II (setting [5]), 5.31 µM; at mCA XIII it was 5.96 µM; on hCA XIV it was 3.81 µM; at hCA VA, 7.75 µM. The “KI (μM)^a^,^b / hCA I” value at hCA I [2] came out at 9.8 µM.

On to `CONS(=O)(=O)c1ccccc1` [compound 5, N-methoxysulphonamide 5], for which the Ki turned out to be 64.3 µM on hCA IX (setting [3]); 27 µM at hCA VI; 5.72 µM on hCA III; 39.5 µM at hCA IV; 8.32 µM on hCA XII (setting [4]); 10.7 µM at hCA VB. Besides, the Ki on hCA VII is 9.56 µM; at hCA II (setting [5]), 8.96 µM; at hCA I [1] (setting [7]), over 1000 µM; on hCA XIV it was 1.57 µM; at hCA VA it was 6.7 µM.

Regarding `NNC(=O)c1ccccc1` [compound 8, hydrazide 8], the Ki on hCA IX (setting [3]) is 48.4 µM; on hCA VI, 63.5 µM; at hCA III, 40.2 µM; at hCA IV it was 335 µM; on hCA XII (setting [4]) it was 45 µM; on hCA VB it was 75.9 µM. In addition, the Ki at hCA VII is 76.7 µM; on hCA II (setting [5]), 231 µM; on hCA I [1] (setting [7]) it was 91.2 µM; at hCA XIV, 0.99 µM; at hCA VA it was 59.3 µM.

As for `O=S(=O)(NO)c1ccccc1` [compound 4, N-hydroxysulphonamide 4], the Ki came to 60.3 µM at hCA IX (setting [3]); 86.2 µM at hCA VI; 4.42 µM on hCA III; 24.6 µM at hCA IV; 1.53 µM at hCA XII (setting [4]); 67.9 µM on hCA VB. In addition, the Ki amounted to 8.73 µM on hCA VII; 5.47 µM at hCA II (setting [5]); 2.73 µM on hCA I [1] (setting [7]); 1.66 µM on hCA XIV; 5.28 µM at hCA VA.

For `NC(=O)c1ccccc1` [compound 7, carboxamide 7], the Ki turned out to be 3.67 µM on hCA IX (setting [3]); 82.6 µM on hCA VI; 35.7 µM at hCA III; 381 µM at hCA IV; 11.2 µM on hCA XII (setting [4]); 83.1 µM at hCA VB. For the same compound, the Ki is 76.8 µM at hCA VII; 93.2 µM on hCA II (setting [5]); 324 µM at hCA I [1] (setting [7]); 27 µM on hCA XIV; 46.8 µM at hCA VA.

The record behind these values is publication PMC6009921, “Carbon- versus sulphur-based zinc binding groups for carbonic anhydrase inhibitors?” (Journal of Enzyme Inhibition and Medicinal Chemistry, 2018).
